# Results as given in patent US20140303092A1 (CHIMERIX, INC., priority 2011, published 2014).
# Test: Study HDP-CDV-201: safety and tolerability (adverse events, laboratory abnormalities, discontinuations)
# Format: in vivo, human (adult allogeneic HSCT recipients)
# Protocol: Clinical Studies of HDP-CDV were performed and described in detail in the following Examples. For example, HDP-CDV-201 is a placebo-controlled, dose-escalating trial in HSCT CMV (R+) recipients, evaluating the ability of HDP-CDV to prevent or control CMV infection was carried out. Five cohorts were established in which participants or subjects received either placebo or the HDP-CDV orally, in doses ranging from 40 mg weekly (QW) to 200 mg twice weekly (BIW). Subjects who were post-HSCT were enrolled at the time of engraftment and randomized to HDP-CDV or placebo (3 to 1 ratio) and received blinded therapy until approximately 100 day post-transplantation. HDP-CDV doses were 40 mg QW, 100 mg QW, 200 mg QW, 200 mg BIW and 100 mg BIW. Escalation to the next dose was decided by the data monitoring committee after review of the safety data from the previous Cohort. Subjects who developed CMV disease or CMV infection requiring pre-emptive therapy with local standard of care were discontinued from blinded therapy and followed for 4 weeks. Subjects who completed treatment with blinded therapy were followed for 8 weeks post-therapy.
# Data from Study HDP-CDV-201 also provided characterization of the safety and tolerability profile of HDP-CDV when administered for the prevention or control of CMV infection in high risk (R^+) post-HSCT adult subjects.
# The Safety population (SAFETY) included all randomized subjects who took at least one dose of study treatment. This population was used to summarize safety outcomes based on the treatment actually received, in cases where a subject was treated contrary to the randomization schedule.
# The safety and tolerability profile of HDP-CDV, including subject demographics and Baseline characteristics; the AE profile; and laboratory abnormalities of interest were analyzed in the cohorts followed in this investigation.
# Subjects completing the treatment period received a full course of study medication; those completing the entire study attended visits through 8 weeks of follow up. Subjects who discontinued treatment may have done so for protocol specified reasons (e.g. development of clinically significant CMV infection requiring preemptive treatment with excluded anti-CMV medications) or for other reasons (e.g., withdrawal, adverse events, loss to follow-up). The disposition of subjects in Study HDP-CDV-201 during the double-blind, placebo-controlled treatment period (through Week 11) is listed by dosing Cohort in TABLE 23.
# Adverse events were examined by severity to ensure that all safety signals were identified in this study population. Because of the frequency of events in HSCT recipients, particular attention was given to evaluation of Grade 3 […], 4 (severe), and 5 (fatal) adverse events.
# Only those preferred terms for which at least one Grade 3 or higher event was experienced in any treatment group are listed. Cytomegalovirus-related AEs are excluded from this analysis.
# HDP-CDV is a lipid conjugate of CDV. Because CDV is known to have adverse effects on renal function and bone marrow, decreased GFR and persistent neutropenia were identified as AEs of special interest. Key renal and hematological (TABLE 30) laboratory parameters were measured and listed below by Study HDP-CDV-201 treatment groups. TABLE 30 includes abnormal levels of serum creatinine, neutrophils, platelets, WBCs, and hemoglobin and includes data at Screening and during the treatment period.
# A common metric for unit based dosing of medications is by weight (mg/kg). When the distribution of weights was examined for all subjects participating in the study, the median was 78 kg and the lower 25th percentile weight was approximately 65 kg, which translates to a cut-off of ˜3 mg/kg for a 200 mg total weekly dose. Based upon this approach, a cut-off of 3 mg/kg was used to assess the frequency of diarrhea and associated GI AEs reported for the subjects in Cohorts 3 or 4a (TABLE 40).
# [1] = Cohort 1, 40 mg QW, through Week 11
smiles,measurement,setting,value
CCCCCCCCCCCCCCCCOCCCOP(=O)(O)COC(CO)Cn1ccc(N)nc1=O (stereo not drawn) [HDP-CDV],"Gastrointestinal AE Abdominal discomfort, subjects","Cohort 1, 40 mg QW",0
same,"Gastrointestinal AE Abdominal distention, subjects","Cohort 1, 40 mg QW",2 (8.0%)
same,"Gastrointestinal AE Abdominal pain upper, subjects","Cohort 1, 40 mg QW",1 (4.0%)
same,"Gastrointestinal AE Abdominal pain, subjects","Cohort 1, 40 mg QW",4 (16.0%)
same,"Gastrointestinal AE Constipation, subjects","Cohort 1, 40 mg QW",1 (4.0%)
same,"Gastrointestinal AE Diarrhoea, subjects","Cohort 1, 40 mg QW",3 (12.0%)
same,"Gastrointestinal AE Diverticulum intestinal haemorragic, subjects","Cohort 1, 40 mg QW",0
same,"Gastrointestinal AE Dyspepsia, subjects","Cohort 1, 40 mg QW",3 (12.0%)
same,"Gastrointestinal AE Dysphagia, subjects","Cohort 1, 40 mg QW",0
same,"Gastrointestinal AE Epigastric discomfort, subjects","Cohort 1, 40 mg QW",1 (4.0%)
same,"Gastrointestinal AE Flatulence, subjects","Cohort 1, 40 mg QW",0
same,"Gastrointestinal AE GERD, subjects","Cohort 1, 40 mg QW",2 (8.0%)
same,"Gastrointestinal AE Gastritis, subjects","Cohort 1, 40 mg QW",0
same,"Gastrointestinal AE Haematochezia, subjects","Cohort 1, 40 mg QW",1 (4.0%)
same,"Gastrointestinal AE Haemorroids, subjects","Cohort 1, 40 mg QW",1 (4.0%)
same,"Gastrointestinal AE Large intestinal ulcer, subjects","Cohort 1, 40 mg QW",1 (4.0%)
same,"Gastrointestinal AE Nausea, subjects","Cohort 1, 40 mg QW",6 (24.0%)
same,"Gastrointestinal AE Odynophagia, subjects","Cohort 1, 40 mg QW",0
same,"Gastrointestinal AE Oesophagitis, subjects","Cohort 1, 40 mg QW",1 (4.0%)
same,"Gastrointestinal AE Retching, subjects","Cohort 1, 40 mg QW",0
same,"Gastrointestinal AE Vomiting, subjects","Cohort 1, 40 mg QW",2 (8.0%)
same,"Hepatobiliary clinical AE Cholelithiasis, subjects","Cohort 1, 40 mg QW",1 (4.0%)
same,"Hepatobiliary clinical AE Hepatomegaly, subjects","Cohort 1, 40 mg QW",0
same,"Hepatobiliary clinical AE Hyperbilirubinaemia, subjects","Cohort 1, 40 mg QW",1 (4.0%)
same,"Hepatobiliary clinical AE Jaundice, subjects","Cohort 1, 40 mg QW",0
same,"Hepatobiliary clinical AE Liver injury, subjects","Cohort 1, 40 mg QW",0
same,"Intensity of Gastrointestinal AEs, Grade 1, subjects","Cohort 1, 40 mg QW",9 (36.0%)
same,"Intensity of Gastrointestinal AEs, Grade 2, subjects","Cohort 1, 40 mg QW",6 (24.0%)
same,"Intensity of Gastrointestinal AEs, Grade 3, subjects","Cohort 1, 40 mg QW",2 (8.0%)
same,"Intensity of Gastrointestinal AEs, Grade 4, subjects","Cohort 1, 40 mg QW",0
same,"Intensity of Gastrointestinal AEs, Grade 5, subjects","Cohort 1, 40 mg QW",0
same,"Serum ALT level, Median fold increase from Baseline at Follow-up Week 1","Cohort 1, 40 mg QW",1.50 fold
same,"Serum ALT level, Median fold increase from Baseline at Follow-up Week 4","Cohort 1, 40 mg QW",1.00 fold
same,"Serum ALT level, Peak Median fold increase from Baseline","Cohort 1, 40 mg QW",1.80 fold
same,Subjects completed study,"Cohort 1, 40 mg QW",7 (28.0%) n (%)
same,"Total Bilirubin (Screening) >1-[…] ULN, subjects","Cohort 1, 40 mg QW",1 (4.0%)
same,"Total Bilirubin (Screening) >1.5-3 × ULN, subjects","Cohort 1, 40 mg QW",3 (12.0%)
same,"Total Bilirubin (Screening) >3-10 × ULN, subjects","Cohort 1, 40 mg QW",0
same,"Total Bilirubin (Screening) >10 × ULN, subjects","Cohort 1, 40 mg QW",0
same,"Total Bilirubin (any time during therapy) >1-[…] ULN, subjects","Cohort 1, 40 mg QW",3 (13.0%)
same,"Total Bilirubin (any time during therapy) >1.5-3 × ULN, subjects","Cohort 1, 40 mg QW",1 (4.3%)
same,"Total Bilirubin (any time during therapy) >3-10 × ULN, subjects","Cohort 1, 40 mg QW",0
same,"Total Bilirubin (any time during therapy) >10 × ULN, subjects","Cohort 1, 40 mg QW",0
same,Abdominal pain leading to study drug withdrawal,"Cohort 1, 40 mg QW, N = 25",0%
same,All AEs leading to withdrawal,"Cohort 1, 40 mg QW, N = 25",15 (60.0%)
same,Diarrhoea leading to study drug withdrawal,"Cohort 1, 40 mg QW, N = 25",0%
same,Dyspepsia leading to study drug withdrawal,"Cohort 1, 40 mg QW, N = 25",0%
same,Nausea leading to study drug withdrawal,"Cohort 1, 40 mg QW, N = 25",0%
same,TEAE ALT increased,"Cohort 1, 40 mg QW, N = 25",2 (8.0%) n (%)
same,TEAE AST increased,"Cohort 1, 40 mg QW, N = 25",1 (4.0%) n (%)
same,TEAE Abdominal pain,"Cohort 1, 40 mg QW, N = 25",4 (16.0%) n (%)
same,"TEAE Abdominal pain, Upper","Cohort 1, 40 mg QW, N = 25",1 (4.0%) n (%)
same,TEAE Acute GVHD,"Cohort 1, 40 mg QW, N = 25",6 (24.0%) n (%)
same,TEAE Acute Myeloid Leukemia recurrent,"Cohort 1, 40 mg QW, N = 25",3 (12.0%) n (%)
same,TEAE Acute Renal Failure,"Cohort 1, 40 mg QW, N = 25",2 (8.0%) n (%)
same,TEAE Anxiety,"Cohort 1, 40 mg QW, N = 25",0 n (%)
same,TEAE Arthralgias,"Cohort 1, 40 mg QW, N = 25",0 n (%)
same,TEAE Back Pain,"Cohort 1, 40 mg QW, N = 25",0 n (%)
same,TEAE Blood lactate dehydrogenase increased,"Cohort 1, 40 mg QW, N = 25",0 n (%)
same,TEAE Creatinine increased,"Cohort 1, 40 mg QW, N = 25",0 n (%)
same,TEAE Cytomegalovirus viremia,"Cohort 1, 40 mg QW, N = 25",10 (40.0%) n (%)
same,TEAE Decreased appetite,"Cohort 1, 40 mg QW, N = 25",4 (16.0%) n (%)
same,TEAE Diarrhoea,"Cohort 1, 40 mg QW, N = 25",3 (12.0%) n (%)
same,TEAE Dysgeusia,"Cohort 1, 40 mg QW, N = 25",1 (4.0%) n (%)
same,TEAE Fatigue,"Cohort 1, 40 mg QW, N = 25",1 (4.0%) n (%)
same,TEAE GI Reflux Disease,"Cohort 1, 40 mg QW, N = 25",2 (8.0%) n (%)
same,TEAE Gamma-glutamyltransferase increased,"Cohort 1, 40 mg QW, N = 25",0 n (%)
same,TEAE Generalized oedema,"Cohort 1, 40 mg QW, N = 25",1 (4.0%) n (%)
same,TEAE Hyperbilirubinaemia,"Cohort 1, 40 mg QW, N = 25",1 (4.0%) n (%)
same,TEAE Hyperglycaemia,"Cohort 1, 40 mg QW, N = 25",1 (4.0%) n (%)
same,TEAE Hyperkalemia,"Cohort 1, 40 mg QW, N = 25",1 (4.0%) n (%)
same,TEAE Hypocalcaemia,"Cohort 1, 40 mg QW, N = 25",1 (4.0%) n (%)
same,TEAE Hypokalaemia,"Cohort 1, 40 mg QW, N = 25",4 (16.0%) n (%)
same,TEAE Hyponatraemia,"Cohort 1, 40 mg QW, N = 25",3 (12.0%) n (%)
same,TEAE Increased leukocytosis,"Cohort 1, 40 mg QW, N = 25",1 (4.0%) n (%)
same,TEAE Insomnia,"Cohort 1, 40 mg QW, N = 25",2 (8.0%) n (%)
same,TEAE Liver function test abnormal,"Cohort 1, 40 mg QW, N = 25",0 n (%)
same,TEAE Malnutrition,"Cohort 1, 40 mg QW, N = 25",0 n (%)
same,TEAE Nausea,"Cohort 1, 40 mg QW, N = 25",6 (24.0%) n (%)
same,TEAE Neutropenia,"Cohort 1, 40 mg QW, N = 25",2 (8.0%) n (%)
same,TEAE Oedema peripheral,"Cohort 1, 40 mg QW, N = 25",3 (12.0%) n (%)
same,TEAE Oral Candidiasis,"Cohort 1, 40 mg QW, N = 25",0 n (%)
same,TEAE Pneumonia,"Cohort 1, 40 mg QW, N = 25",1 (4.0%) n (%)
same,TEAE Pyrexia,"Cohort 1, 40 mg QW, N = 25",1 (4.0%) n (%)
same,TEAE Recurrent flatulence,"Cohort 1, 40 mg QW, N = 25",0 n (%)
same,TEAE Renal Failure,"Cohort 1, 40 mg QW, N = 25",1 (4.0%) n (%)
same,TEAE Staphylococcal Bacteremia,"Cohort 1, 40 mg QW, N = 25",0 n (%)
same,TEAE Thrombocytopenia,"Cohort 1, 40 mg QW, N = 25",3 (12.0%) n (%)
same,TEAE Tremor,"Cohort 1, 40 mg QW, N = 25",3 (12.0%) n (%)
same,TEAE Vomiting,"Cohort 1, 40 mg QW, N = 25",2 (8.0%) n (%)
same,Vomiting leading to study drug withdrawal,"Cohort 1, 40 mg QW, N = 25",0%
same,"All AEs, Grade 5 (deaths)","Cohort 1, 40 mg QW, N = 25, entire study duration",2 (8.0%)
same,Subjects completed treatment,[1],9 (36.0%) n (%)
same,Subjects who permanently discontinued treatment,[1],16 (64.0%) n (%)
same,subjects discontinued due to neutropenia,Cohort 2,1 subject(s)
same,"ALT (Screening) >3 × ULN-5 × ULN, subjects","Cohort 2, 100 mg QW",0
same,"ALT (Screening) >5 × ULN-10 × ULN, subjects","Cohort 2, 100 mg QW",0
same,"ALT (Screening) >10 × ULN-20 × ULN, subjects","Cohort 2, 100 mg QW",0
same,"ALT (Screening) >20 × ULN, subjects","Cohort 2, 100 mg QW",0
same,"ALT (any time during therapy) >3 × ULN-5 × ULN, subjects","Cohort 2, 100 mg QW",1 (3.7%)
same,"ALT (any time during therapy) >5 × ULN-10 × ULN, subjects","Cohort 2, 100 mg QW",0
same,"ALT (any time during therapy) >10 × ULN-20 × ULN, subjects","Cohort 2, 100 mg QW",1 (3.7%)
same,"ALT (any time during therapy) >20 × ULN, subjects","Cohort 2, 100 mg QW",0
same,"AST (Screening) >3 × ULN-5 × ULN, subjects","Cohort 2, 100 mg QW",0
same,"AST (Screening) >5 × ULN-10 × ULN, subjects","Cohort 2, 100 mg QW",0
same,"AST (Screening) >10 × ULN-20 × ULN, subjects","Cohort 2, 100 mg QW",0
same,"AST (Screening) >20 × ULN, subjects","Cohort 2, 100 mg QW",0
same,"AST (any time during therapy) >3 × ULN-5 × ULN, subjects","Cohort 2, 100 mg QW",1 (3.7%)
same,"AST (any time during therapy) >5 × ULN-10 × ULN, subjects","Cohort 2, 100 mg QW",0
same,"AST (any time during therapy) >10 × ULN-20 × ULN, subjects","Cohort 2, 100 mg QW",0
same,"AST (any time during therapy) >20 × ULN, subjects","Cohort 2, 100 mg QW",0
